Assay results published in patent US20050152845A1, “Amorphous fluticasone 2-furoate, pharmaceutical compositions thereof and its conversion to the crystalline unsolvated form” (priority 2002, published 2005).
pEC50: −log10 of the molar value.

Key:
[1] = Pharmacokinetics after intra-tracheal dry powder dosing in the pig; type: in vivo; details: 1 mg intra-tracheal, LLOQ 10 pg/mL compound (I), 20pg/mL fluticasone propionate
Procedure: Serial blood samples were taken for up to 8 h following dosing.

lung eosinophilia = assay: Ovalbumin sensitised Brown Norway rat eosinophilia model; type: in vivo; details: single dose of 30 μg, intra-tracheal suspension in saline 30 min prior to ovalbumin challenge
Procedure: Pharmacological activity in vivo was assessed in an ovalbumin sensitised Brown Norway rat eosinophilia model. This model is designed to mimic allergen induced lung eosinophilia, a major component of lung inflammation in asthma.

thymus weight = assay: Rat model of thymus involution; type: in vivo; details: 3 daily IT doses of 100 μg
[2] = molecular target: T1, glucocorticoid receptor (GR) (Homo sapiens, UniProt P04150); assay: Transactivation reporter assay (renilla luciferase, glucocorticoid response element) in A549 cells; type: cell-based; details: 1 h compound then 0.5ng/ml TNFα 15 hours, read-out: Transactivation (GR) ED50
T1 construct: two reporter plasmids have been generated and introduced separately into A549 human lung epithelial cells by transfection; endogenous in cells; host or cells: A549 human lung epithelial cells stably carrying a renilla luciferase reporter with 3 copies of the consensus GRE
T1 sequence (P04150 1-777): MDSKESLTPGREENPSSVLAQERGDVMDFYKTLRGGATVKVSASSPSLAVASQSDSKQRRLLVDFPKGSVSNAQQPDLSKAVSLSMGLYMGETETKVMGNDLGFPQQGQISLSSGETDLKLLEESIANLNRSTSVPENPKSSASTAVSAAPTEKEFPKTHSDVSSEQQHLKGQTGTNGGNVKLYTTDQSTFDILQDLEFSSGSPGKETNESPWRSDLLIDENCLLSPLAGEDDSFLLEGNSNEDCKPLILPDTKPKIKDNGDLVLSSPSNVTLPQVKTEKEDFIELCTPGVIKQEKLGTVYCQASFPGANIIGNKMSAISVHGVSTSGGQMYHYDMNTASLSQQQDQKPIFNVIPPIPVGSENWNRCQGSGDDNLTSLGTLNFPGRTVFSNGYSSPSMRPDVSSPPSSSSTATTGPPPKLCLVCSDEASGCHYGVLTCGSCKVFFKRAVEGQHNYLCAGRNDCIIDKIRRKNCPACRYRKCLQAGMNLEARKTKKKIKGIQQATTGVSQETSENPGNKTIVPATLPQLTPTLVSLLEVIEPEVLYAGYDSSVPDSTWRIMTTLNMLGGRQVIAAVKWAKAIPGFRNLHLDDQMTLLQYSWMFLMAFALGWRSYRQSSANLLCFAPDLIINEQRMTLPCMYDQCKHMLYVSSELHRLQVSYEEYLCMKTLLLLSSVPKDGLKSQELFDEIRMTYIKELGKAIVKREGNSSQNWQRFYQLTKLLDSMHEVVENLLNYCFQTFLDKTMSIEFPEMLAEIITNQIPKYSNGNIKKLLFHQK
Text: (§1) The glucocorticoid receptor (GR) can function in at least two distinct mechanisms, by upregulating gene expression through the direct binding of GR to specific sequences in gene promoters, and by downregulating gene expression that is being driven by other transcription factors (such as NFκB or AP-1) through their direct interaction with GR.
In a variant of the above method, to monitor these functions, two reporter plasmids have been generated and introduced separately into A549 human lung epithelial cells by transfection. The first cell line contains the firefly luciferase reporter gene under the control of a synthetic promoter that specifically responds to activation of the transcription factor NFκB when stimulated with TNFα. The second cell line contains the renilla luciferase reporter gene under the control of a synthetic promotor that comprises 3 copies of the consensus glucocorticoid response element, and which responds to direct stimulation by glucocorticoids. […] After incubation for 1 h 0.5ng/ml TNFα (R&D Systems) was added and after a further 15 hours at 37° C., the levels of firefly and renilla luciferase were measured using the Packard Firelite kit following the manufacturers' directions. Dose response curves were constructed from which EC50 values were determined.

NFκB = assay: Transrepression reporter assay (firefly luciferase, NFκB promoter, TNFα stimulated) in A549 cells; type: cell-based; details: Homo sapiens, 1 h compound then 0.5ng/ml TNFα 15 hours, read-out: Transrepression (NFκB) ED50
Text: as §1
The first cell line contains the firefly luciferase reporter gene under the control of a synthetic promoter that specifically responds to activation of the transcription factor NFκB when stimulated with TNFα. The second cell line contains the renilla luciferase reporter gene under the control of a synthetic promotor that comprises 3 copies of the consensus glucocorticoid response element, and which responds to direct stimulation by glucocorticoids. Simultaneous measurement of transactivation and transrepression was conducted by mixing the two cell lines in a 1:1 ratio in 96 well plate (40,000 cells per well) and growing overnight at 37° C. Test compounds were dissolved in DMSO, and added to the cells at a final DMSO concentration of 0.7%. […] Dose response curves were constructed from which EC50 values were determined.

glucocorticoid receptor = molecular target: T2, glucocorticoid receptor (Homo sapiens, UniProt P04150); assay: In vitro functional glucocorticoid assays, metabolite versus parent; type: cell-based
T2 construct: endogenous in cells
T2 sequence (P04150 1-777): T1 sequence (P04150 1-777)
Procedure: Compound (I) undergoes highly efficient hepatic metabolism to yield the 17-β carboxylic acid (X) as the sole major metabolite in rat and human in vitro systems.
The functional assay was based on that described by K. P. Ray et al., Biochem J. (1997), 328, 707-715. A549 cells stably transfected with a reporter gene containing the NF-κB responsive elements from the ELAM gene promoter coupled to sPAP (secreted alkaline phosphatase) were treated with test compounds at appropriate doses for 1 hour at 37° C. The cells were then stimulated with tumour necrosis factor (TNF, 10ng/ml) for 16 hours, at which time the amount of alkaline phosphatase produced is measured by a standard colourimetric assay. Dose response curves were constructed from which EC50 values were estimated.
In a variant of the above method, to monitor these functions, two reporter plasmids have been generated and introduced separately into A549 human lung epithelial cells by transfection. […] After incubation for 1 h 0.5ng/ml TNFα (R&D Systems) was added and after a further 15 hours at 37° C., the levels of firefly and renilla luciferase were measured using the Packard Firelite kit following the manufacturers' directions. Dose response curves were constructed from which EC50 values were determined.

| time after dosing up to which quantifiable in plasma [1] | reduction of thymus weight (thymus weight) [%] | pEC50 [2] | pEC50 (NFκB) | fold less active than the parent compound (glucocorticoid receptor) [fold] | Compound | inhibition of lung eosinophilia (lung eosinophilia) [%] |
| --- | --- | --- | --- | --- | --- | --- |
| up to 8 hours | 78 | – | – | – | CCC(=O)O[C@]1(C(=O)SCF)[C@H](C)C[C@H]2[C@@H]3C[C@H](F)C4=CC(=O)C=C[C@]4(C)[C@@]3(F)[C@@H](O)C[C@@]21C [Fluticasone propionate, 6α, 9α-Difluoro-17α-(1-oxopropoxy)-11β-hydroxy-16α-methyl-3-oxo-androsta-1,4-diene-17β-carbothioic acid S-fluoromethyl ester, reference compound] | 41 |
| – | – | < 6.60 | < 6.00 | > 1000 | C[C@@H]1CCC2C3C[C@H](F)C4=CC(=O)C=C[C@]4(C)[C@@]3(F)[C@@H](O)C[C@]2(C)[C@@]1(OC(=O)c1ccco1)C(=O)O (stereo partly drawn) [Metabolite (X)] | – |
